Source: patent US20070213370A1, “5-HTP Combination Therapy” (H. Lundbeck A/S, priority 2005, published 2007)
Read-outs that look alike come from different tables or passages of the source.

Assays:
NMRI/BOM mice = assay: Mouse forced swim test; type: in vivo; conditions: for ED50: SRI alone, mouse forced swim test; for ED50, SRI + 5-HTP (25 mg/kg): SRI in combination with 5-HTP 25 mg/kg SC
Source text: Male NMRI/BOM mice (18-25 g; Bomholtgaard, Denmark) were used. The mice were housed in plastic cages (35×30×12 cm), 10 in each and habituated to the animal facilities for at least a week before test. […] The animals had free access to commercial food pellets and tap water before test.
A mouse that is forced to swim in a spatially constrained container will exert a characteristic immobile posture. Pretreatment with an antidepressant will counteract this effect. […] Briefly, a fully automated test system with 6 swim units (2000 ml glass jars filled with 1200 ml soiled water (23-25° C.) in which a mouse had been placed previously) was used. The assessment of immobility was performed by image analysis.
Thirty minutes after drug or vehicle treatment the mice were treated with 5-HTP and 20 min later the mice were placed into the glass jar and left in the water for a total of 6 min. The accumulated duration of immobility was measured during the last 3 min. A total of 9-18 mice were tested per dose.

BALB/cByJ mice = assay: Mouse marble burying behavior; type: in vivo
Source text: Male BALB/cByJ mice (Jackson labs, Bar Harbor, Me.) were housed 5/cage upon arrival, at which time they were 7-8 weeks of age. Animals acclimated to the housing facility under standard laboratory conditions for a period of at least one week before testing (lights on at 6:00 AM). […] Fifteen minutes after the second injection, animals were individually placed into novel cages in which a layer of Aspen Pine bedding on which two parallel rows of 10 marbles each (i.e. twenty total) were placed. After 30 minutes had elapsed, the mice were removed from their test cages and returned to their home cages. The number of fully visible marbles (less than ⅔ covered with bedding) were counted and subtracted from 20 to arrive at the number of marbles buried.

[1] = Mouse plasma levels of 5-HTP; type: in vivo; conditions: mouse forced swim test with escitalopram versus human clinical efficacy
Procedure: For this indication, typical doses of 100-200 mg of 5-HTP result in plasma levels of 50-100 ng/ml (Gijsman, H. J., et al., J Clin Psychopharmacol. 2002 April, 22(2):183-9).

[2] = cited from earlier work
[3] = typical doses of 100-200 mg 5-HTP; cited from earlier work
[4] = tested on: extra-cellular 5-HT in frontal cortex; assay: Rat microdialysis, extracellular 5-HT in frontal cortex of freely moving rats; type: in vivo; conditions: escitalopram 0.5 mg/kg s.c. versus fluoxetine 10 mg/kg s.c.; 5-HTP 25 mg/kg s.c. 60 min later
Procedure: FIG. 1. […] Microdialysis in freely moving rats was performed as described in detail by Mark, […]. and Sanchez, C. […] Briefly, male Sprague-Dawley rats were prepared for microdialysis by surgically implanting intracerebral guide cannulas. A microdialysis probe was inserted through the guide cannula. Perfusion of the microdialysis probe with filtered Ringer solution (146 mM NaCl, 3 mM KCl, 1 mM MgCl2, 1.2 mM CaCl2) was done before the insertion of the probe and continued for the duration of the experiments at a constant flow of 1 μl/minute into the frontal cortex.

rat = conditions: cited from earlier work
mouse = conditions: co-administration with L; cited from earlier work
[5] = in combination with escitalopram at a dose corresponding to a clinically effective concentration

NC(Cc1c[nH]c2ccc(O)cc12)C(=O)O (centres unmarked) [5-HTP, 2-amino-3-(5-hydroxy-1H-indol-3-yl)-propanoic acid]
potentiation of the response to escitalopram (NMRI/BOM mice; 5-HTP 10, 15 and 50 mg/kg co-administered with escitalopram 0.5 mg/kg): significantly potentiates
effect of 5-HTP alone (NMRI/BOM mice; 5-HTP 25 and 50 mg/kg without SRI): not by themselves effective
5-HTP dose at which maximum potentiation effect was achieved (NMRI/BOM mice; [5]): 50 mg/kg
minimal effective dose of 5-HTP (NMRI/BOM mice; [5]): 10 mg/kg
marble burying, 5-HTP alone (BALB/cByJ mice; 5-HTP 2.5 mg/kg): no behavioral effect
factor by which potentiating plasma levels in mouse are lower than those required for clinical efficacy in humans [1]: at least 3 times
mouse plasma level ([2]; 5-HTP 25 mg/kg): 17 ng/mL
mouse plasma level ([2]; 5-HTP 50 mg/kg): 41 ng/mL
plasma levels in humans [3]: 50 to 100 ng/mL

CN(C)CCC[C@@]1(c2ccc(F)cc2)OCc2cc(C#N)ccc21 [Escitalopram, S-(+)-1-[3-(dimethylamino)propyl]-1-(p-fluorophenyl)-5-phthalancarbonitrileoxalate]
ED50 (NMRI/BOM mice): 12 mg/kg
ED50, SRI + 5-HTP (25 mg/kg) (NMRI/BOM mice): 0.42 mg/kg
5-HTP potentiation effect measured as increase of extra-cellular 5-HT in the frontal cortex [4]: dramatically higher
marble burying, escitalopram without 5-HTP (BALB/cByJ mice; 0.25 mg/kg IP): inactive
marble burying, escitalopram with 5-HTP (BALB/cByJ mice; escitalopram 0.0625-0.25 mg/kg plus 5-HTP 2.5 mg/kg): significant reduction in marble burying
anxiolytic response to co-treatment with L, 5-HTP (rat): markedly enhanced

CNCCC(Oc1ccc(C(F)(F)F)cc1)c1ccccc1 (centres unmarked) [Fluoxetine]
ED50 (NMRI/BOM mice): > 8.9 mg/kg
ED50, SRI + 5-HTP (25 mg/kg) (NMRI/BOM mice): 5.4 mg/kg

Fc1ccc([C@@H]2CCNC[C@H]2COc2ccc3c(c2)OCO3)cc1 [Paroxetine, (3S,4R)-3-((1,3-benzodioxol-5-yloxy)methyl)-4-(4-fluorophenyl)-piperidine]
ED50 (NMRI/BOM mice): 6.5 mg/kg
ED50, SRI + 5-HTP (25 mg/kg) (NMRI/BOM mice): 0.64 mg/kg
antiaggressive effect with a subeffective dose of L, 5-HTP (mouse): greatly potentiated

CN(C)CCC[C@]1(c2ccc(F)cc2)OCc2cc(C#N)ccc21 [R-citalopram]
anxiolytic response to co-treatment with L, 5-HTP (rat): significant increase of ultrasonic vocalization

COc1ccc(C(CN(C)C)C2(O)CCCCC2)cc1 (centres unmarked) [Venlafaxine]
ED50 (NMRI/BOM mice): > 10 mg/kg
ED50, SRI + 5-HTP (25 mg/kg) (NMRI/BOM mice): 3.9 mg/kg
